Assay results as given in article PMC8409943, “Study on mechanism of low bioavailability of black tea theaflavins by using Caco-2 cell monolayer” (Drug Delivery, 2021).
Where two headings read alike, the source gives them in different places.

Key:
Caco-2 cells [1] = test: Cytotoxicity study by CCK-8 method; assay type: cell-based, Human; conditions: 24 h
Protocol: Standard stock solutions (1000 μM) of each theaflavin were prepared in 0.1% dimethyl sulfoxide (DMSO) in deionized water, and diluted with fresh DMEM to 100, 200, 300, 400, and 500 µmol/L respectively. Each inhibitor was prepared as instructions. The cytotoxicity of theaflavins and four inhibitors of multidrug resistant associated proteins to Caco-2 cells was examined by CCK-8 method (Song et al., [2014]). Briefly, Caco-2 cells were inoculated onto 96-well microtiter plates at a density of 1 × 10^4 cells per well. After incubation at 37 °C for 24 h, cells were incubated for another 24 h with different concentrations of theaflavins, followed by adding 10 μL CCK-8 solution and 1 h incubation at 37 °C. The absorbance (OD) value was determined at 450 nm using a microplate reader (ELX-800, Bio-Tek Instruments Inc., Winooski, USA). Four inhibitors were used in this study: Vep, inhibitor of P-gp; CsA, inhibitor and substrate of P-gp; MK-571, inhibitor of MRP1, MRP2 and MRP3; FTC, inhibitor of BCRP (Silbermann et al., [1989]; König et al., [1999]; Renes et al., [1999]; Ali et al., [2017]). The cytotoxicity of Vep, CsA, MK-571 or FTC was also determined by CCK-8 assay. […] To determine the effects of inhibitors on the cytotoxicity of theaflavins, cells were incubated with both different theaflavin monomers (100, 200, 300, 400, and 500 μM) and different inhibitors. IC50, the half inhibitory concentration, was calculated from the cell viability. The cell viability was calculated by the following equation: (1) Cell viability (%)=(ODsample− ODblank)/(ODcontrol− ODblank)×100% where ODsample is the absorbance value of cell + sample + complete medium; ODblank, the absorbance value of complete medium; ODcontrol, the absorbance value of cell + complete medium.

MRP2 = test: Quantitative real-time PCR, mRNA level of MRP2; assay type: cell-based, Human; conditions: Caco-2 cells, 200 μM, 2 h, vs control
Protocol: Cell culture and treatment were performed as described above in 2.6. Total RNA was extracted from Caco-2 cells by the cell RNA extraction kit, and then reverse-transcribed by the cDNA synthesis kit. Gene amplification and quantitative detection were performed as previously described (Ai et al., [2019]). Target mRNA levels were normalized to β-actin mRNA levels. Data were calculated by the 2^−ΔΔCT method.

[2] = Stability (recovery rate) of theaflavins in HBSS and DMEM in the absence of cells
Protocol: Standard stock solutions of each theaflavin were diluted with HBSS and DMEM respectively, obtaining final test solutions of 200 μM. The recovery rate of theaflavins in HBSS and in DMEM, in the absence of cells, was analyzed by HPLC after incubation at 37 °C for 0.5, 1, 2, 3, 4, 8, 12, and 24 hours, respectively. The recovery rate was used to measure the stability and calculated as follows: (2) Recovery rate=Ct/C0× 100% where Ct is the final concentration at different incubation time (μM); C0, the initial concentration (μM).
Theaflavins were characterized by high performance liquid chromatography (HPLC, Agilent 1100VL, Agilent Technologies Inc., CA, USA). Briefly, samples were extracted with 70% methanol, centrifuged at 685 × g for 10 min, and filtered through a 0.45 μm membrane (Nylon 66). The separation was performed by an ODS reversed-phase column (4.6 mm i.d.×250 mm, SB-C18, Agilent Technologies Inc., CA, USA) at a flow rate of 0.7 mL/min. Chromatographic conditions were slightly modified according to China National Standard (GB/T 30483-2013, GAQSIQ, P. R. China, 2013). Samples were eluted with a gradient of solvent A (100 mL water with 9 mL acetonitrile and 2 mL acetic acid) and B (100 mL acetonitrile with 17.8 mL water and 2 mL acetic acid) as follows: 0–5 min, 95% A; 5–10 min, 90% A; 10–20 min, 70% A; 20–25 min, 65% A; 25–30 min, 70% A; 30–35 min, 100% A. Theaflavins were detected using an ultraviolet detector at a wavelength of 278 nm.

Caco-2 cells [3] = test: Intracellular accumulation of theaflavin monomers; conditions: 200 μM theaflavins, 2 h incubation, 37 °C
Protocol: Caco-2 cells were seeded at a density of 8 × 10^4 cells per well in 6-well plates (Ni et al., [2020]). After differentiation over a period of 21 days, cells were incubated with 2.0 mL of 200 μM theaflavins at 37 °C. After 2 h incubation, phosphate buffer was added to wash cells in the plate. Then, cell lysates were prepared with RIPA lysis buffer containing 1 mM PMSF as a protease inhibitor and centrifugated at 12,000 rpm for 30 min. Total protein contents were quantified using a BCA estimation kit according to the manufacturer’s instructions (Beyotime). Theaflavins were quantified by HPLC analysis and the intracellular accumulation was expressed as µg theaflavin/mg protein.
Theaflavins were characterized by high performance liquid chromatography (HPLC, Agilent 1100VL, Agilent Technologies Inc., CA, USA). Briefly, samples were extracted with 70% methanol, centrifuged at 685 × g for 10 min, and filtered through a 0.45 μm membrane (Nylon 66). […] Samples were eluted with a gradient of solvent A (100 mL water with 9 mL acetonitrile and 2 mL acetic acid) and B (100 mL acetonitrile with 17.8 mL water and 2 mL acetic acid) as follows: 0–5 min, 95% A; 5–10 min, 90% A; 10–20 min, 70% A; 20–25 min, 65% A; 25–30 min, 70% A; 30–35 min, 100% A. Theaflavins were detected using an ultraviolet detector at a wavelength of 278 nm.

Caco-2 cell monolayers = test: Transepithelial transport of theaflavins across Caco-2 cell monolayers, with or without efflux transporter inhibitors; assay type: in vitro ADME, Human; conditions: absorptive transport, 2 h
Protocol: (§1) For transport studies, Caco-2 cells were seeded at a density of 3 × 10^5 cells per well in Transwell® inserts (polycarbonate membrane, 24 mm i.d., 0.4 μm pore size, Corning Costar Corp., NY, USA) in 6-well plates (Zhang et al., [2004]). […] The inserts were washed twice with HBSS buffer and equilibrated at 37 °C for 30 min. Standard stock solutions of each theaflavin were diluted to 200 μM with HBSS. For absorptive transport, theaflavins in 1.5 mL HBSS was added into the AP side and 2.6 mL HBSS was added into the BL side of all inserts. For secretory transport, 1.5 mL HBSS and 2.6 mL theaflavins in HBSS were added into AP side and BL side, respectively. Samples were collected from the receiving chamber after 0.5, 1, 2, 3, or 4 h incubation and then were lyophilized at −110 °C in a CoolSafe freeze dryer (LaboGene ApS, Bjarkesvej, Denmark) for HPLC analysis. The recovery rate of theaflavins in the transport was calculated from the above Equation (2).
(§2) Prior to transport inhibition experiment, cells were preincubated for 30 min with 100 μM Vep, 100 μM CsA, 100 μM MK-571, or 10 μM FTC in both sides (Vaidyanathan & Walle, [2001]; Wang et al., [2008]). Then, the absorptive and secretory experiments were performed in the presence of inhibitors as described above. Samples were collected from the receiving chamber after 2 h incubation and then were lyophilized at −110 °C for HPLC analysis.
(§3) The apparent permeability coefficient (Papp, cm/s) was calculated as follows: (3) Papp= dQ/dt×V/(A×C0) where dQ/dt is the variation in concentration on the receiving side over time (μM/s); V, the volume of the solution collected from the receiving chamber (cm^3); A, the area of the membrane (4.67 cm^2); C0, the initial concentration of theaflavins in the donor chamber (μM).
(§4) The efflux ratio was calculated as follows: (4) Efflux ratio= Papp(BL−AP)/Papp(AP−BL) where Papp, apparent permeability coefficient; AP-BL, apical to basolateral transport; BL-AP, basolateral to apical transport.

[4] = as above; assay type: in vitro ADME, Human; conditions: human; for recovery at 2 h, 200 μM: Caco-2, Caco-2 monolayers, after 2 h incubation; for efflux ratio at 2 h, 200 μM / Papp A→B at 2 h, 200 μM / Papp B→A at 2 h, 200 μM: 2 h incubation
Protocol: as §1, §2, §3, §4

Caco-2 monolayers = test: HPLC-MS/MS identification of metabolites in the absorptive transport of Caco-2 monolayers; assay type: in vitro ADME, Human; conditions: 200 µM, 2 h, AP side or BL side of Caco-2 monolayers
Protocol: TF3G, TF3’G and TFDG were dissolved in DMSO (≤0.5%), and then, diluted with HBSS. Caco-2 cells were incubated with 200 µM TF3G, TF3’G and TFDG at 37 °C for 2 h. Samples collected from both AP side and BL side were measured by HPLC with MS detection, and the metabolites were determined in terms of the standard TF, TF3G, TF3’G, TFDG, and gallic acid (Table S2).

SMILES: O=c1c(O)cc([C@H]2Oc3cc(O)cc(O)c3C[C@H]2O)cc2c([C@H]3Oc4cc(O)cc(O)c4C[C@H]3O)cc(O)c(O)c12 [TF, theaflavin]
- IC50 (Caco-2 cells [1]; + CsA): 584 ± 26.9 µM
- IC50 (Caco-2 cells [1]; + FTC): 492 ± 34.2 µM
- IC50 (Caco-2 cells [1]; + MK-571): 463 ± 80.8 µM
- IC50 (Caco-2 cells [1]; + VEP): 517 ± 66.2 µM
- IC50 (Caco-2 cells [1]; Homo sapiens, Ctrl (no inhibitor)): 681 ± 19.2 µM
- decrease of mRNA (transcriptional) level of MRP2 (MRP2): 38.73%
- degraded due to the structural instability ([2]; 2 h): 9.3%
- Recovery rate in DMEM ([2]; pH 6.0 DMEM without cells, 200 μM, 37 °C, 2 h incubation): < 45%
- Contents of theaflavins absorbed in Caco-2 cells (Caco-2 cells [3]): -
- increase of the influx (Caco-2 cell monolayers; with CsA vs control): 2.0 times
- fold increase in the influx (Caco-2 cell monolayers; with MK-571 vs control): 1.47 fold
- fold increase in the influx (Caco-2 cell monolayers; with verapamil vs control): 1.50 fold
- recovery at 2 h, 200 μM ([4]; apical to basolateral, read-out: recovery of theaflavins in absorptive transport): 39.8%
- recovery at 2 h, 200 μM ([4]; basolateral to apical, read-out: recovery of theaflavins in secretory transport): 48.9%
- efflux ratio at 2 h, 200 μM ([4]; Caco-2, Papp(BL−AP)/Papp(AP−BL), Ctrl (no inhibitor)): 1.24 ± 0.09
- Papp A→B at 2 h, 200 μM ([4]; Caco-2, absorptive transport, 200 μM theaflavin in HBSS, Ctrl (no inhibitor)): 0.277 ± 0.009 ×10⁻⁶ cm/s
- Papp B→A at 2 h, 200 μM ([4]; Caco-2, secretory transport, 200 μM theaflavin in HBSS, Ctrl (no inhibitor)): 0.342 ± 0.014 ×10⁻⁶ cm/s
- efflux ratio at 2 h, 200 μM ([4]; Caco-2, with 10 μM FTC (BCRP inhibitor), + 10 μM FTC (BCRP inhibitor)): 1.05 ± 0.08
- Papp A→B at 2 h, 200 μM ([4]; Caco-2, with 10 μM FTC (BCRP inhibitor), absorptive transport, + 10 μM FTC (BCRP inhibitor)): 0.31 ± 0.01 ×10⁻⁶ cm/s
- Papp B→A at 2 h, 200 μM ([4]; Caco-2, with 10 μM FTC (BCRP inhibitor), secretory transport, + 10 μM FTC (BCRP inhibitor)): 0.324 ± 0.013 ×10⁻⁶ cm/s
- efflux ratio at 2 h, 200 μM ([4]; Caco-2, with 100 μM CsA (P-gp inhibitor and substrate), + 100 μM CsA (P-gp inhibitor and substrate)): 0.62 ± 0.05
- Papp A→B at 2 h, 200 μM ([4]; Caco-2, with 100 μM CsA (P-gp inhibitor and substrate), absorptive transport, + 100 μM CsA (P-gp inhibitor and substrate)): 0.565 ± 0.019 ×10⁻⁶ cm/s
- Papp B→A at 2 h, 200 μM ([4]; Caco-2, with 100 μM CsA (P-gp inhibitor and substrate), secretory transport, + 100 μM CsA (P-gp inhibitor and substrate)): 0.348 ± 0.014 ×10⁻⁶ cm/s
- efflux ratio at 2 h, 200 μM ([4]; Caco-2, with 100 μM Vep (P-gp inhibitor), + 100 μM Vep (P-gp inhibitor)): 0.73 ± 0.05
- Papp A→B at 2 h, 200 μM ([4]; Caco-2, with 100 μM Vep (P-gp inhibitor), absorptive transport, + 100 μM Vep (P-gp inhibitor)): 0.415 ± 0.014 ×10⁻⁶ cm/s
- Papp B→A at 2 h, 200 μM ([4]; Caco-2, with 100 μM Vep (P-gp inhibitor), secretory transport, + 100 μM Vep (P-gp inhibitor)): 0.301 ± 0.012 ×10⁻⁶ cm/s
- conjugated metabolites (glucuronidated, sulfated and methylated) (Caco-2 monolayers): not detected
